Experimental data: PubChem BioAssay AID1259407 (Chemical Carcinogenesis Research Information System (CCRIS), 2018)
Activity calls are given as the source filed them. No rule for the calls is given here.

Tested on: CCRIS mutagenicity, Ames/micronucleus/aberration tests
Assay: CCRIS mutagenicity studies
[1] = Test System: AMES SALMONELLA TYPHIMURIUM, Strain/Indicator: TA98, Metabolic Activation: NONE, Method: STANDARD PLATE
[2] = Test System: AMES SALMONELLA TYPHIMURIUM, Strain/Indicator: TA100, Metabolic Activation: NONE, Method: STANDARD PLATE
[3] = Test System: AMES SALMONELLA TYPHIMURIUM, Strain/Indicator: TA98, Metabolic Activation: NONE, Method: PREINCUBATION
[4] = Test System: AMES SALMONELLA TYPHIMURIUM, Strain/Indicator: TA100, Metabolic Activation: NONE, Method: PREINCUBATION

SMILES: COP(=O)(OC)Oc1ccc([N+](=O)[O-])c(C)c1
- mutagenic call [1]: inactive; negative
- mutagenic call (Test System: AMES SALMONELLA TYPHIMURIUM, Strain/Indicator: TA98, Metabolic Activation: RAT, LIVER, S-9, Method: STANDARD PLATE): active; positive
- mutagenic call [2]: inactive; negative
- mutagenic call (Test System: AMES SALMONELLA TYPHIMURIUM, Strain/Indicator: TA100, Metabolic Activation: RAT, LIVER, S-9, Method: STANDARD PLATE): inactive; negative

SMILES: NC(=O)c1ccccc1C(N)=O
- mutagenic call (Test System: AMES SALMONELLA TYPHIMURIUM, Strain/Indicator: TA98, Metabolic Activation: HAMSTER, LIVER, S-9, AROCLOR 1254 (10%), Method: PREINCUBATION): inactive; negative
- mutagenic call [3]: inactive; negative
- mutagenic call (Test System: AMES SALMONELLA TYPHIMURIUM, Strain/Indicator: TA98, Metabolic Activation: RAT, LIVER, S-9, AROCLOR 1254 (10%), Method: PREINCUBATION): inactive; negative
- mutagenic call (Test System: AMES SALMONELLA TYPHIMURIUM, Strain/Indicator: TA100, Metabolic Activation: HAMSTER, LIVER, S-9, AROCLOR 1254 (10%), Method: PREINCUBATION): inactive; negative
- mutagenic call [4]: inactive; negative
- mutagenic call (Test System: AMES SALMONELLA TYPHIMURIUM, Strain/Indicator: TA100, Metabolic Activation: RAT, LIVER, S-9, AROCLOR 1254 (10%), Method: PREINCUBATION): inactive; negative
- mutagenic call (Test System: AMES SALMONELLA TYPHIMURIUM, Strain/Indicator: TA1535, Metabolic Activation: HAMSTER, LIVER, S-9, AROCLOR 1254 (10%), Method: PREINCUBATION): inactive; negative
- mutagenic call (Test System: AMES SALMONELLA TYPHIMURIUM, Strain/Indicator: TA1535, Metabolic Activation: NONE, Method: PREINCUBATION): inactive; negative
- mutagenic call (Test System: AMES SALMONELLA TYPHIMURIUM, Strain/Indicator: TA1535, Metabolic Activation: RAT, LIVER, S-9, AROCLOR 1254 (10%), Method: PREINCUBATION): inactive; negative
- mutagenic call (Test System: AMES SALMONELLA TYPHIMURIUM, Strain/Indicator: TA1537, Metabolic Activation: HAMSTER, LIVER, S-9, AROCLOR 1254 (10%), Method: PREINCUBATION): inactive; negative
- mutagenic call (Test System: AMES SALMONELLA TYPHIMURIUM, Strain/Indicator: TA1537, Metabolic Activation: NONE, Method: PREINCUBATION): inactive; negative
- mutagenic call (Test System: AMES SALMONELLA TYPHIMURIUM, Strain/Indicator: TA1537, Metabolic Activation: RAT, LIVER, S-9, AROCLOR 1254 (10%), Method: PREINCUBATION): inactive; negative

SMILES: CCN(CC)c1ccc2cc(-c3nc4ccccc4n3C)c(=O)oc2c1
- mutagenic call (Test System: AMES SALMONELLA TYPHIMURIUM, Strain/Indicator: TA1538, Metabolic Activation: NONE, Method: STANDARD PLATE): inactive; negative
- mutagenic call (Test System: AMES SALMONELLA TYPHIMURIUM, Strain/Indicator: TA1538, Metabolic Activation: RAT, LIVER, S-9, AROCLOR 1254, Method: STANDARD PLATE): inactive; negative

SMILES: ClCC1C(CCl)[C@@]2(Cl)C(Cl)=C(Cl)[C@]1(Cl)C2(Cl)Cl (some centres not stated)
- mutagenic call (Test System: AMES SALMONELLA TYPHIMURIUM, Strain/Indicator: TA97, Metabolic Activation: NONE, Method: STANDARD PLATE): inactive; negative
- mutagenic call (Test System: AMES SALMONELLA TYPHIMURIUM, Strain/Indicator: TA97, Metabolic Activation: RAT, LIVER, S-9, AROCLOR 1254, Method: STANDARD PLATE): inactive; negative
- mutagenic call [1]: inactive; negative
- mutagenic call (Test System: AMES SALMONELLA TYPHIMURIUM, Strain/Indicator: TA98, Metabolic Activation: RAT, LIVER, S-9, AROCLOR 1254, Method: STANDARD PLATE): inactive; negative
- mutagenic call [2]: inactive; negative
- mutagenic call (Test System: AMES SALMONELLA TYPHIMURIUM, Strain/Indicator: TA100, Metabolic Activation: RAT, LIVER, S-9, AROCLOR 1254, Method: STANDARD PLATE): inactive; negative
- mutagenic call (Test System: AMES SALMONELLA TYPHIMURIUM, Strain/Indicator: TA102, Metabolic Activation: NONE, Method: STANDARD PLATE): inactive; negative
- mutagenic call (Test System: AMES SALMONELLA TYPHIMURIUM, Strain/Indicator: TA102, Metabolic Activation: RAT, LIVER, S-9, AROCLOR 1254, Method: STANDARD PLATE): inactive; negative

SMILES: Oc1c(Cl)cc(Cl)c2cccnc12
- mutagenic call [3]: inactive; negative
- mutagenic call (Test System: AMES SALMONELLA TYPHIMURIUM, Strain/Indicator: TA98, Metabolic Activation: RAT, LIVER, S-9, Method: PREINCUBATION): inactive; negative
- mutagenic call [4]: inactive; negative
- mutagenic call (Test System: AMES SALMONELLA TYPHIMURIUM, Strain/Indicator: TA100, Metabolic Activation: RAT, LIVER, S-9, Method: PREINCUBATION): inactive; negative

SMILES: C#CC
- mutagenic call (End Point: IN VITRO CHROMOSOMAL ABERRATIONS, Test System: CHL CELLS, Metabolic Activation: RAT, LIVER, S-9, SODIUM PHENOBARBITAL AND 5,6-BENZOFLAVONE): inactive; negative; authors report equivocal results for structural changes at the highest
- mutagenic call (Test System: AMES SALMONELLA TYPHIMURIUM, Strain/Indicator: TA98, Metabolic Activation: NONE, Method: GAS EXPOSURE): inactive; negative
- mutagenic call (Test System: AMES SALMONELLA TYPHIMURIUM, Strain/Indicator: TA98, Metabolic Activation: RAT LIVER S-9, PHENOBARBITAL AND BETA-NAPHTHOFLAVONE (40%), Method: GAS EXPOSURE): inactive; negative
- mutagenic call (Test System: AMES SALMONELLA TYPHIMURIUM, Strain/Indicator: TA98, Metabolic Activation: RAT, LIVER, S-9, PHENOBARBITAL AND 5,6-BENZOFLAVONE, Method: GAS EXPOSURE): inactive; negative
- mutagenic call (Test System: AMES SALMONELLA TYPHIMURIUM, Strain/Indicator: TA100, Metabolic Activation: NONE, Method: GAS EXPOSURE): inactive; negative
- mutagenic call (Test System: AMES SALMONELLA TYPHIMURIUM, Strain/Indicator: TA100, Metabolic Activation: RAT LIVER S-9, PHENOBARBITAL AND BETA-NAPHTHOFLAVONE (40%), Method: GAS EXPOSURE): inactive; negative
- mutagenic call (Test System: AMES SALMONELLA TYPHIMURIUM, Strain/Indicator: TA100, Metabolic Activation: RAT, LIVER, S-9, PHENOBARBITAL AND 5,6-BENZOFLAVONE, Method: GAS EXPOSURE): inactive; negative
- mutagenic call (Test System: AMES SALMONELLA TYPHIMURIUM, Strain/Indicator: TA1535, Metabolic Activation: NONE, Method: GAS EXPOSURE): inactive; negative
- mutagenic call (Test System: AMES SALMONELLA TYPHIMURIUM, Strain/Indicator: TA1535, Metabolic Activation: RAT LIVER S-9, PHENOBARBITAL AND BETA-NAPHTHOFLAVONE (40%), Method: GAS EXPOSURE): inactive; negative
- mutagenic call (Test System: AMES SALMONELLA TYPHIMURIUM, Strain/Indicator: TA1535, Metabolic Activation: RAT, LIVER, S-9, PHENOBARBITAL AND 5,6-BENZOFLAVONE, Method: GAS EXPOSURE): inactive; negative
- mutagenic call (Test System: AMES SALMONELLA TYPHIMURIUM, Strain/Indicator: TA1537, Metabolic Activation: NONE, Method: GAS EXPOSURE): inactive; negative
- mutagenic call (Test System: AMES SALMONELLA TYPHIMURIUM, Strain/Indicator: TA1537, Metabolic Activation: RAT LIVER S-9, PHENOBARBITAL AND BETA-NAPHTHOFLAVONE (40%), Method: GAS EXPOSURE): inactive; negative
- mutagenic call (Test System: AMES SALMONELLA TYPHIMURIUM, Strain/Indicator: TA1537, Metabolic Activation: RAT, LIVER, S-9, PHENOBARBITAL AND 5,6-BENZOFLAVONE, Method: GAS EXPOSURE): inactive; negative
- mutagenic call (Test System: E. COLI, Strain/Indicator: WP2 UVRA, Metabolic Activation: NONE, Method: GAS EXPOSURE): active; positive
- mutagenic call (Test System: E. COLI, Strain/Indicator: WP2 UVRA, Metabolic Activation: RAT, LIVER, S-9, PHENOBARBITAL AND 5,6-BENZOFLAVONE, Method: GAS EXPOSURE): active; positive
- mutagenic call (Test System: E.COLI, Strain/Indicator: WP2UVRA, Metabolic Activation: NONE, Method: GAS EXPOSURE): active; positive
- mutagenic call (Test System: E.COLI, Strain/Indicator: WP2UVRA, Metabolic Activation: RAT LIVER S-9, PHENOBARBITAL AND BETA-NAPHTHOFLAVONE (40%), Method: GAS EXPOSURE): active; positive

SMILES: CC(C)c1cc(-c2ccccc2)cc(C(C)C)c1N
- mutagenic call [1]: inactive; negative
- mutagenic call (Test System: AMES SALMONELLA TYPHIMURIUM, Strain/Indicator: TA98, Metabolic Activation: RAT LIVER S-9, AROCLOR, Method: STANDARD PLATE): inactive; negative
- mutagenic call [2]: inactive; negative
- mutagenic call (Test System: AMES SALMONELLA TYPHIMURIUM, Strain/Indicator: TA100, Metabolic Activation: RAT LIVER S-9, AROCLOR, Method: STANDARD PLATE): inactive; negative

SMILES: Oc1c2ccccc2c2ccc3cccc4ccc1c2c43
- mutagenic call (Test System: CHINESE HAMSTER V-79, Strain/Indicator: V-79/8-AZAGUANINE, Metabolic Activation: NONE, Method: STANDARD PLATE): active; positive
